From BigSolDB 2.1

CCOc1ccccc1C(N)=O
solubility (mole fraction)
Settings	293.15 K	298.15 K	303.15 K	308.15 K	313.15 K	318.15 K	323.15 K
in acetonitrile	0.00709	0.0091	0.0123	0.0167	0.022	0.0285	0.0377
in ethanol	0.0121	0.0162	0.0198	0.0252	0.0313	0.0392	0.0472
in isopropanol	0.0097	0.0125	0.0155	0.0189	0.024	0.0304	0.0391
in methanol	0.016	0.02	0.0252	0.0306	0.0392	0.0484	0.0596
